Ends that are not written are not given here.
Assays:
MEB-5 cells = test: haptotactic migration assay, MEB-5 cells; type: cell-based, mouse; settings: 1 ng/ml coating, 200,000 cells
Procedure: NRPs were tested for migration-inducing/chemoattractive activity on mouse neural stem cells, EGF-dependent immortalized mouse neural stem cell line MEB5 and wild-type PC-12 cells in a haptotactic migration assay as described below.
Initial NRP Coating. Control wells of Transwell plates (Coming) with 12 μm pore size were coated in 1.5 ml of the BSA/PBS vehicle. Remaining plates were coated using various concentrations of NRPs ranging between 1-100 ng/ml (prepared in PBS containing 10 ug/ml BSA). The plates were then incubated at 37° C. for 1 hr to coat. Wells were then rinsed 2× with 1 ml sterile PBS.
Laminin ([…]) for MEB-5 cells, PDL (50 μg/ml)+Matrigel for mouse primary stem cells and fibronectin (25 ug/ml)+matrigel for PC-12 cells were used as extracellular matrix (ECM) coating for the cells. All ECM compounds were diluted in PBS. 1.5 ml of the ECM per well was incubated for 2 hrs at room temperature. The wells were then rinsed once with Iml serum-free media (e.g. NB/B27) followed by 1 ml PBS wash.
A 5 ug/mL PDL/PLL mixture (in PBS) was used to coat inserts. Subsequently the inserts were rinsed with MilliQ water. […]

[1] = test system: human olfactory ensheating glial (OEG) cells; test: proliferation of olfactory ensheating glial (OEG) cells; type: cell-based; settings: over 72 hours
Procedure: To determine whether NRPs might be useful for remyelinating neural tissues, we carried out studies using human olfactory ensheating glial (OEG) cells. OEG cells are being evaluated as a source population of cells for repopulating damaged neural tissue, such as that of the spinal cord. OEG cells were obtained from scrapings of human nasal mucosa using methods that are known in the art. Cells were grown in medium under control conditions and in the presence of NRP-7 SW (SEQ ID NO:24).

thalamocortical OTCs = test: thalamocortical OTC neuronal migration assay (cell bridge / cell chain); type: cell-based, rat
From the text: We developed a new assay system for identifying NRP having migration-inducing activity. The assay system was used following guidelines approved by the Gesundheitsamt Magdeburg animal ethics committee. Newborn Long Evans rats (P0) were killed by decapitation, and neural tissues were used for preparation of organotypic cultures (OTCs). Neocortical tissue (areas 17-18 according to the Paxinos rat atlas of the developing rat brain) and thalamic tissue from the dorsal thalamus (visual areas) were extracted. These areas represent the visual axis. The dorsal thalamus was accessed by an intersection cut to remove the hypothalamus. Subsequently, the thalamus was sliced frontally using a McIllwain tissue chopper into 350 μm thick slices. Using a dissecting microscope, the habenula nucleus served as a landmark to select only dorsal thalamic areas. Cortical tissues were cut using two sagittal and two frontal intersections in order to obtain areas 17-18 of the occipital cortex. Before the last frontal cut was made, the hippocampal formation was removed. The cortical tissues were sliced by a Mclllwain tissue chopper into 350 μm thick frontal slices and was incubated in Gey's balanced salt solution (GBSS) plus 0.65% D(+)glucose, and tissuesswere kept at 4° C. for at least 30-40 minutes for recovery.
For each assay, two slices of tissue, one cortical and one thalamic, were arranged at a distance at least about 3 mm from each other on a glass substrate (e.g., a cover slip; FIG. 1). The thalamus was oriented with the habenula nucleus facing cortical layer VI. The tissues were adhered to the substrate using a plasma clot (10 μl chicken plasma (Cocalico) coagulated with 10 μl thrombin (25 U/ml, ICN) and the tissues were subsequently cultured (cultivated) at 36° C. in a roller tube incubator as organotypic cultures using 2/4 BME/¼ HBSS (Invitrogen) medium supplemented with 25% heat-inactivated horse serum (Gaehwiler, 1981) plus 2 mM L0glutamine and 0.65% D-glucose. A 712.5 μl sample of prepared medium was supplemented with 37.5 μl of purified rat NRP-1 (SEQ ID NO:2) (in concentrated or diluted form) in 0.01 M sodium phosphate (pH 7.3) or phosphate alone (control). For the experiments using 600 ng/ml NRP-1, the peptide was concentrated 4 times by speed vacuum centrifugation. The medium containing NRP was changed every three days. After each study was completed, the tissues were fixed using conventional fixatives, and migrating neurons were analysed by immunocytochemistry.
Thus, any observations of neurite outgrowths or interconnecting cell bridges are due to the influence of factors added to the culture medium. […] Thus, in certain embodiments of this invention, NRPs can be identified and/or quantified. In other embodiments, NRPs amounts can be standardized, forming a basis for therapeutic application of NRPs to treat neurological diseases or conditions.
Migration of the thalamic neurons was determined after 3 days of co-culture in the presence of NRP. The migration distances were measured by a micrometer scaled-microscopic ocular, beginning from the tissue margin of the migrating cell stream. As a threshold value for the formation of a migrating cell chain was considered to be a number of at least 5 interconnected neurons. For the determination of the dose-response curve, the longest distance of a migrated neuron from the thalamic tissue margin was measured. Results are given as mean values+/− standard deviation.

GFAP-positive astrocytes = test: astrocyte proliferation (GFAP/BrdU) in thalamocortical OTC cell bridge; type: cell-based, rat
Procedure: FIG. 12 depicts the specificity of the proliferation induced by NRP-1 (SEQ ID NO: 2). We tested the proliferation status of astroglia by monitoring the expression patterns for GFAP and BrdU-incorporation. Thalamocortical OTCs were supplemented with 3 nM highly purified migration-inducing factor and fixed following 4 days in vitro. FIG. 12A (left panel) depicts non-proliferative GFAP-positive astrocytes (white arrows) accompanying the neuronal migration stream, with a subpopulation of astrocytes of proliferative character (FIG. 12B, right panel; white arrow heads). Approximately 30% of the astrocytes in close vicinity to the neuronal migration stream were of proliferative character. Bar: 50 μm.
We also investigated the effects of NRP-1 (SEQ ID NO:2) on the induction of proliferation within astrocytes in a qualitative way. […] Therefore we looked only at the newly formed cell bridge between the thalamic and cortical tissue 4 days after NRP administration.

KDPEARRAPGSLHPCLAAS-NH2 [NRP-2 segment KS, 19-mer fragment of NRP-2]
more MEB-5 cells migrated compared with BSA-vehicle (MEB-5 cells): 109%

SEPEARRAPGRKGGVVCASLAADW-NH2 [NRP-7 segment SW, 24-mer form of mouse NRP-7]
rate of growth of OEG cells [1]: about 50%

NRP-1: rat 16 amino acid neural regeneration peptide purified from hippocampal OTC supernatant, Tyr Asp Pro Glu ... Cys His-NH2 (YDPEAASAPGSGNPCH-NH2)
concentration at which neuronal migration was clearly detected (thalamocortical OTCs; 2 ng/ml = 1 nM): 2 ng/mL | length of cell bridge between the thalamic and cortical tissues (thalamocortical OTCs; 6 ng/ml (3 nM)): 2500±240 μm | concentrations at which neuronal migration was not increased (thalamocortical OTCs; 10-30 nM): 20 to 60 ng/mL | interconnecting neurite network formed, time after cultivation start (thalamocortical OTCs; NRP-1 supplemented co-cultures): ≤ 36 h | concentration producing the longest cell chain (thalamocortical OTCs; dose-response 2-600 ng/ml, 6 ng/ml = 3 nM): 6 ng/mL | concentration producing the greatest effect (migrating cell chain) (thalamocortical OTCs; thalamocortical OTCs): 3 nM | astroglial division (GFAP-positive astrocytes): does not induce astroglial division | astrocytes in close vicinity to the neuronal migration stream of proliferative character (GFAP-positive astrocytes; 3 nM, 4 days in vitro): Approximately 30%

Reference: patent US7563862B2, “Neural regeneration peptides and methods for their use in treatment of brain damage” (Neuren Pharmaceuticals Limited, priority 2001, dated 2009)
